Laboratory results as given in US11242343B2 (Incyte Corporation, priority 2016, dated 2022).

Target: HPK1 (Homo sapiens, UniProt Q92918)
Test: HPK1 Kinase Binding Assay
Conditions: LanthaScreen tracer 222 binding, one hour incubation at 25° C.
Procedure: Example A. HPK1 Kinase Binding Assay
A stock solution of 1 mM test compound was prepared in DMSO. The compound plate was prepared by 3-fold and 11-point serial dilutions. 0.1 μL of the compound in DMSO was transferred from the compound plate to the white 384 well polystyrene plates. The assay buffer contained 50 mM HEPES, pH 7.5, 0.01% Tween-20, 5 mM MgCl2, 0.01% BSA, and 5 mM DTT. 5 μl of 4 nM active HPK1 (SignalChem M23-11G) prepared in the buffer was added to the plate. The enzyme concentration given was based on the given stock concentration reported by the vender. 5 μl of 18 nM tracer 222 (ThermoFisher PV6121) and 4 nM LanthaScreen Eu-Anti GST antibody (ThermoFisher PV5595) were added. After one hour incubation at 25° C., the plates were read on a PHERAstar FS plate reader (BMG Labtech). Ki values were determined.

Chain of HPK1 (Q92918 whole entry, looked up): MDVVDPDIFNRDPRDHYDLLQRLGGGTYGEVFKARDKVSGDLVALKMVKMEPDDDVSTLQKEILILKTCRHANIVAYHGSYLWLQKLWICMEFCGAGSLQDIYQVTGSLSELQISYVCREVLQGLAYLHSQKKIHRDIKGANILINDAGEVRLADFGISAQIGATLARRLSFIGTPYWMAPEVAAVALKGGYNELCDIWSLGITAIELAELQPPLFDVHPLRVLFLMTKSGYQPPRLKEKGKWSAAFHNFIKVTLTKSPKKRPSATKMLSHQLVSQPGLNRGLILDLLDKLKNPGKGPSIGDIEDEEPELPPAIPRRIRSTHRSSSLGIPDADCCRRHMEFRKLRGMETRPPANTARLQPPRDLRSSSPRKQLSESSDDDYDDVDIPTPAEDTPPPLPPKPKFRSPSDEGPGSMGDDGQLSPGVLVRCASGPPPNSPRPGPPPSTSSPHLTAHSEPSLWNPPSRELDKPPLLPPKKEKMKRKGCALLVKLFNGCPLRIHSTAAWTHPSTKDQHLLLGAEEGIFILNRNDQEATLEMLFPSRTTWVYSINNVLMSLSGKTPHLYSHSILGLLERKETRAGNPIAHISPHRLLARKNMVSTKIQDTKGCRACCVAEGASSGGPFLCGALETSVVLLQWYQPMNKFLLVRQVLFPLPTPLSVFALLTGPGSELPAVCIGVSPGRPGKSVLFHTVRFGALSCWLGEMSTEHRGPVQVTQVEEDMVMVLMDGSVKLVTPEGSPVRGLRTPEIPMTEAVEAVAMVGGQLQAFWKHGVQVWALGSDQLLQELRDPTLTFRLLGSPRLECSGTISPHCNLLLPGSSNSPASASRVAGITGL

Row | SMILES | Ki [nM]
1 | Cc1ccccc1-c1ccc2[nH]nc(-c3ccc(N4CCN(C)CC4)cc3)c2n1 [Example 3] | ≤ 100
2 | CN1CCN(c2ccc(-c3n[nH]c4ccc(-c5cccnc5)nc34)cc2)CC1 [Example 24, 3-(4-(4-Methylpiperazin-1-yl)phenyl)-5-(pyridin-3-yl)-1H-pyrazolo[4,3-b]pyridine] | ≤ 100
3 | CNCc1cc(C)c(-c2nc3c(-c4ccc(N5CCN(C)CC5)nc4)n[nH]c3cc2C#N)c(F)c1 [Example 67, 5-(2-Fluoro-6-methyl-4-((methylamino)methyl)phenyl)-3-(6-(4-methylpiperazin-1-yl)pyridin-3-yl)-1H-pyrazolo[4,3-b]pyridine-6-carbonitrile] | ≤ 100
4 | CNCc1cc(C)c(-c2nc3c(-c4cnc(N5CCOCC5)nc4)n[nH]c3cc2C#N)c(F)c1 [Example 70, 5-(2-Fluoro-6-methyl-4-((methylamino)methyl)phenyl)-3-(2-morpholinopyrimidin-5-yl)-1H-pyrazolo[4,3-b]pyridine-6-carbonitrile] | ≤ 100
5 | CNCc1cc(C)c(-c2nc3c(-c4cnn(C)c4)n[nH]c3cc2C#N)c(F)c1 [Example 66, 5-(2-Fluoro-6-methyl-4-((methylamino)methyl)phenyl)-3-(1-methyl-1H-pyrazol-4-yl)-1H-pyrazolo[4,3-b]pyridine-6-carbonitrile] | ≤ 100
6 | CCN1CCN(c2ccc(-c3n[nH]c4cc(C#N)c(-c5c(F)ccc6c5CCNC6)nc34)cc2)CC1 [Example 75] | ≤ 100
7 | CN1CCN(c2ccc(-c3n[nH]c4ccc(-c5cnc6cnn(C)c6c5)nc34)cc2)CC1 [Example 28, 1′-Methyl-3-(4-(4-methylpiperazin-1-yl)phenyl)-1H,1′H-5,6′-bipyrazolo[4,3-b]pyridine] | ≤ 100
8 | CN1CCN(c2ccc(-c3n[nH]c4ccc(-c5cnc6c(c5)ncn6C)nc34)cc2)CC1 [Example 31, 5-(3-Methyl-3H-imidazo[4,5-b]pyridin-6-yl)-3-(4-(4-methylpiperazin-1-yl)phenyl)-1H-pyrazolo[4,3-b]pyridine] | ≤ 100
9 | CN1CCN(c2ccc(-c3n[nH]c4ccc(-c5cccc6c5CCC6NCc5ccccc5)nc34)cc2)CC1 (stereo not shown) [Example 50, N-Benzyl-4-(3-(4-(4-methylpiperazin-1-yl)phenyl)-1H-pyrazolo[4,3-b]pyridin-5-yl)-2,3-dihydro-1H-inden-1-amine] | ≤ 100
10 | CCN1CCN(c2ccc(-c3n[nH]c4cc(C#N)c(-c5c(C)cccc5F)nc34)cc2)CC1 [Example 64] | ≤ 100
11 | Cc1cccc(F)c1-c1nc2c(-c3cnn(C)c3)n[nH]c2cc1C#N [Example 77] | ≤ 100
12 | CN1CCN(c2ccc(-c3n[nH]c4ccc(-c5ccccc5F)nc34)cc2)CC1 [Example 4, 5-(2-Fluorophenyl)-3-(4-(4-methylpiperazin-1-yl)phenyl)-1H-pyrazolo[4,3-b]pyridine] | ≤ 100
13 | CN1CCN(c2ccc(-c3n[nH]c4ccc(-c5cccc6c5CCNC6)nc34)cc2)CC1 [Example 46, 5-(3-(4-(4-Methylpiperazin-1-yl)phenyl)-1H-pyrazolo[4,3-b]pyridin-5-yl)-1,2,3,4-tetrahydroisoquinoline] | ≤ 100
14 | CN1CCN(c2ccc(-c3n[nH]c4ccc(-c5ccccc5C#N)nc34)cc2)CC1 [Example 19] | ≤ 100
15 | CN1CCN(c2ccc(-c3n[nH]c4ccc(-c5cncc6ccccc56)nc34)cc2)CC1 [Example 37, 4-(3-(4-(4-Methylpiperazin-1-yl)phenyl)-1H-pyrazolo[4,3-b]pyridin-5-yl)isoquinoline] | ≤ 100
16 | Cc1cccc(F)c1-c1ccc2[nH]nc(-c3ccc(N4CCN(C)CC4)cc3)c2n1 [Example 7, 5-(2-Fluoro-6-methylphenyl)-3-(4-(4-methylpiperazin-1-yl)phenyl)-1H-pyrazolo[4,3-b]pyridine] | ≤ 100
17 | Cc1n[nH]cc1-c1ccc2[nH]nc(-c3ccc(N4CCN(C)CC4)cc3)c2n1 [Example 34, 5-(3-Methyl-1H-pyrazol-4-yl)-3-(4-(4-methylpiperazin-1-yl)phenyl)-1H-pyrazolo[4,3-b]pyridine] | ≤ 100
18 | CN1CCN(c2ccc(-c3n[nH]c4ccc(-c5cccc(F)c5F)nc34)cc2)CC1 [Example 9, 5-(2,3-Difluorophenyl)-3-(4-(4-methylpiperazin-1-yl)phenyl)-1H-pyrazolo[4,3-b]pyridine] | ≤ 100
19 | CN1CCN(c2ccc(-c3n[nH]c4ccc(-c5cccc(C(=O)NCc6ccccc6)c5F)nc34)cc2)CC1 [Example 42, N-Benzyl-2-fluoro-3-(3-(4-(4-methylpiperazin-1-yl)phenyl)-1H-pyrazolo[4,3-b]pyridin-5-yl)benzamide] | ≤ 100

Row | SMILES | Ki [nM]
20 | CN1CCN(c2ccc(-c3n[nH]c4ccc(-c5cncnc5)nc34)cc2)CC1 [Example 26, 3-(4-(4-Methylpiperazin-1-yl)phenyl)-5-(pyrimidin-5-yl)-1H-pyrazolo[4,3-b]pyridine] | ≤ 100
21 | Cn1cc(-c2n[nH]c3cc(C#N)c(-c4c(F)ccc5c4CCNC5)nc23)cn1 [Example 74] | ≤ 100
22 | Cc1c(N)cccc1-c1ccc2[nH]nc(-c3ccc(N4CCN(C)CC4)cc3)c2n1 [Example 6, 2-Methyl-3-(3-(4-(4-methylpiperazin-1-yl)phenyl)-1H-pyrazolo[4,3-b]pyridin-5-yl)aniline] | ≤ 100
23 | CNCc1cc(C)c(-c2nc3c(-c4ccc(C(C)(C)O)nc4)n[nH]c3cc2C#N)c(F)c1 [Example 71, 5-(2-Fluoro-6-methyl-4-((methylamino)methyl)phenyl)-3-(6-(2-hydroxypropan-2-yl)pyridin-3-yl)-1H-pyrazolo[4,3-b]pyridine-6-carbonitrile] | ≤ 100
24 | CN1CCN(c2ccc(-c3n[nH]c4ccc(-c5c(F)cccc5CO)nc34)cc2)CC1 [Example 11, (3-Fluoro-2-(3-(4-(4-methylpiperazin-1-yl)phenyl)-1H-pyrazolo[4,3-b]pyridin-5-yl)phenyl)methanol] | ≤ 100
25 | COc1ccc(F)c(F)c1-c1ccc2[nH]nc(-c3ccc(N4CCN(C)CC4)cc3)c2n1 [Example 10, 5-(2,3-Difluoro-6-methoxyphenyl)-3-(4-(4-methylpiperazin-1-yl)phenyl)-1H-pyrazolo[4,3-b]pyridine] | ≤ 100
26 | CN1CCN(c2ccc(-c3n[nH]c4ccc(-c5cccn6ccnc56)nc34)cc2)CC1 [Example 44, 5-(Imidazo[1,2-a]pyridin-8-yl)-3-(4-(4-methylpiperazin-1-yl)phenyl)-1H-pyrazolo[4,3-b]pyridine] | ≤ 100
27 | CCOC(=O)c1cccc(-c2ccc3[nH]nc(-c4ccc(N5CCN(C)CC5)cc4)c3n2)c1F [Example 12, Ethyl 2-fluoro-3-(3-(4-(4-methylpiperazin-1-yl)phenyl)-1H-pyrazolo[4,3-b]pyridin-5-yl)benzoate] | ≤ 100
28 | CCN1CCN(c2ccc(-c3n[nH]c4cc(C#N)c(-c5c(C)cc(CNC)cc5F)nc34)cc2)CC1 [Example 69, 3-(4-(4-Ethylpiperazin-1-yl)phenyl)-5-(2-fluoro-6-methyl-4-((methylamino)methyl)phenyl)-1H-pyrazolo[4,3-b]pyridine-6-carbonitrile] | ≤ 100
29 | CNC(=O)c1cccc(-c2ccc3[nH]nc(-c4ccc(N5CCN(C)CC5)cc4)c3n2)c1F [Example 41, 2-Fluoro-N-methyl-3-(3-(4-(4-methylpiperazin-1-yl)phenyl)-1H-pyrazolo[4,3-b]pyridin-5-yl)benzamide] | ≤ 100
30 | Cc1cccc(F)c1-c1nc2c(-c3cnc(N4CCOCC4)nc3)n[nH]c2cc1C#N [Example 63, 5-(2-Fluoro-6-methylphenyl)-3-(2-morpholinopyrimidin-5-yl)-1H-pyrazolo[4,3-b]pyridine-6-carbonitrile] | ≤ 100
31 | CN1CCN(c2ccc(-c3n[nH]c4ccc(-c5cnn6ccccc56)nc34)cc2)CC1 [Example 35, 3-(4-(4-Methylpiperazin-1-yl)phenyl)-5-(pyrazolo[1,5-a]pyridin-3-yl)-1H-pyrazolo[4,3-b]pyridine] | ≤ 100
32 | CNC1CCc2c(-c3ccc4[nH]nc(-c5ccc(N6CCN(C)CC6)cc5)c4n3)cccc21 (stereo not shown) [Example 48, N-Methyl-4-(3-(4-(4-methylpiperazin-1-yl)phenyl)-1H-pyrazolo[4,3-b]pyridin-5-yl)-2,3-dihydro-1H-inden-1-amine] | ≤ 100
33 | CN1CCN(c2ccc(-c3n[nH]c4ccc(-c5cccc6[nH]ncc56)nc34)cc2)CC1 [Example 23, 5-(1H-Indazol-4-yl)-3-(4-(4-methylpiperazin-1-yl)phenyl)-1H-pyrazolo[4,3-b]pyridine] | ≤ 100
34 | COc1cccc(F)c1-c1ccc2[nH]nc(-c3ccc(N4CCN(C)CC4)cc3)c2n1 [Example 8, 5-(2-Fluoro-6-methoxyphenyl)-3-(4-(4-methylpiperazin-1-yl)phenyl)-1H-pyrazolo[4,3-b]pyridine] | ≤ 100
35 | CNCc1cc(F)c(-c2ccc3[nH]nc(-c4ccc(N5CCN(C)CC5)cc4)c3n2)c(F)c1 [Example 61, 1-(3,5-Difluoro-4-(3-(4-(4-methylpiperazin-1-yl)phenyl)-1H-pyrazolo[4,3-b]pyridin-5-yl)phenyl)-N-methylmethanamine] | ≤ 100
36 | CN1CCC(NC(=O)c2ccc(-c3n[nH]c4ccc(-c5ccccc5F)nc34)cc2)CC1 [Example 55, 4-(5-(2-Fluorophenyl)-1H-pyrazolo[4,3-b]pyridin-3-yl)-N-(1-methylpiperidin-4-yl)benzamide] | ≤ 100
37 | CN1CCN(c2ccc(-c3n[nH]c4ccc(-c5cccc(C(=O)NCc6ccncc6)c5F)nc34)cc2)CC1 [Example 43, 2-Fluoro-3-(3-(4-(4-methylpiperazin-1-yl)phenyl)-1H-pyrazolo[4,3-b]pyridin-5-yl)-N-(pyridin-4-ylmethyl)benzamide] | ≤ 100
